Among the data in patent publication US12110294B2, “CD73 compounds” (Gilead Sciences, Inc., priority 2020, dated 2024) are IC50 and EC50 values, retold here.

Read-outs that look alike come from different tables or passages of the source.

In assay [1] the target is T1, CD73 (Homo sapiens, UniProt P21589).
T1 construct: purchased R&D system
T1 sequence (P21589 27-549): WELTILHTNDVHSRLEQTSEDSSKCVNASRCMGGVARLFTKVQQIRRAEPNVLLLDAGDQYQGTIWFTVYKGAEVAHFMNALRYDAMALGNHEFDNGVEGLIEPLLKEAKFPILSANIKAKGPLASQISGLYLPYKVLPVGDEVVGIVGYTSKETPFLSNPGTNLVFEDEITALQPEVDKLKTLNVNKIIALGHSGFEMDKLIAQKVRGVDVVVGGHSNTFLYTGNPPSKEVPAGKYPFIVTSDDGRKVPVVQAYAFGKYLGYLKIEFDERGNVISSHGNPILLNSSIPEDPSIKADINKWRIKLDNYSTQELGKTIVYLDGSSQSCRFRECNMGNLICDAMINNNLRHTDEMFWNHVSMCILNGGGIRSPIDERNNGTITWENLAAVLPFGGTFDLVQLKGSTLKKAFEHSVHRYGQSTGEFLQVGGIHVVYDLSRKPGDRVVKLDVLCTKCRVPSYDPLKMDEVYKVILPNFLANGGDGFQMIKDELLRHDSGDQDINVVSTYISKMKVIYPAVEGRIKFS
The class given is biochemical. Conditions: 1 mM NaH2PO4 in enzyme buffer, final AMP 15 uM, final CD73 0.3 nM.

For assay [2], the target named is T2, CD73 activity in MDA-MB-231-GFP cells (Homo sapiens, UniProt P21589).
T2 construct: endogenous in cells; host or cells: MDA-MB-231-GFP cells
T2 sequence (P21589 27-549): T1 sequence (P21589 27-549)
The assay is described as follows: MDA-MB-231 Cell Based CD73 Activity Assay (DMEM). Conditions: 3000 cells per well, DMEM medium with 10% human plasma, overnight compound treatment, AMP 200 uM.

The target in assay [3] is T1, CD73. The assay is described as follows: CD73 Biochemical IC50 Assay. Conditions: final AMP 15 uM, final CD73 0.3 nM, 25 mM Tris pH 7.4, 5 mM MgCl2, no phosphate. The method, then:
CD73 Biochemical IC50 Assay
Compound serial dilutions were pre-spotted into Thermo Nunc assay plate. 50 μL CD73 enzyme buffer (CD73 purchased from R&D system=0.6 nM, 25 mM Tris, pH 7.4, 5 mM MgCl2) was added into the assay plate and incubated for 15 mins. […] The samples were run using Rapid fire.

Assay [4] addresses T2, CD73 activity in MDA-MB-231-GFP cells. The assay is described as follows: MDA-MB-231 Cell Based CD73 Activity Assay. The following applies: 10000 cells per well, RPMI medium with 10% human plasma, overnight compound treatment, AMP 200 μM. On the procedure: MDA-MB-231 Cell Based CD73 Activity Assay
MDA-MB-231-GFP cells were seeded in 384-well plates (Greiner 781946) at a density of 10000 cells per well in 50 μL of RPMI medium with 10% HP (human plasma). Cells were plated into assay plate with compounds pre-spotted, for an overnight compound treatment. 50 μL of 400 μM AMP (final concentration 200 μM) using a Bio-tek dispenser. Plates were incubated for 100 mins. […] The samples were run using Rapid fire.

Turning to `O=c1[nH]cc(-c2cc([C@@H]3C[C@H]3c3ccc(F)cc3)c3nccn3n2)c(=O)[nH]1` (racemic) [Example 30, 5-(8-((1S,2S)-2-(4-fluorophenyl)cyclopropyl)imidazo[1,2-b]pyridazin-6-yl)pyrimidine-2,4(1H,3H)-dione and 5-(8-((1R,2R)-2-(4-fluorophenyl)cyclopropyl)imidazo[1,2-b]pyridazin-6-yl)pyrimidine-2,4(1H,3H)-dione], the IC50 against CD73 [1] stood at 2.08 nM; at CD73 [3], 2.36 nM. The EC50 in assay [2] came out at 5.11 nM; in assay [4] it was 2.56 nM.
As for `O=c1[nH]cc(-c2cc([C@@H]3C[C@H]3c3ccc(F)cc3F)c3nccn3n2)c(=O)[nH]1` (racemic) [Example 31, 5-(8-((1S,2S)-2-(2,4-difluorophenyl)cyclopropyl)imidazo[1,2-b]pyridazin-6-yl)pyrimidine-2,4(1H,3H)-dione and 5-(8-((1R,2R)-2-(2,4-difluorophenyl)cyclopropyl)imidazo[1,2-b]pyridazin-6-yl)pyrimidine-2,4(1H,3H)-dione], the IC50 at CD73 [1] was found to be 0.93 nM; on CD73 [3], 5.49 nM. Also, the half-maximal effective concentration (EC50) in assay [2] stood at 4.83 nM; in assay [4], 3.84 nM.
For `O=c1[nH]cc(-c2cc([C@@H]3C[C@H]3c3ccc(F)c(F)c3)c3nccn3n2)c(=O)[nH]1` (racemic) [Example 33, 5-(8-((1S,2S)-2-(3,4-difluorophenyl)cyclopropyl)imidazo[1,2-b]pyridazin-6-yl)pyrimidine-2,4(1H,3H)-dione and 5-(8-((1R,2R)-2-(3,4-difluorophenyl)cyclopropyl)imidazo[1,2-b]pyridazin-6-yl)pyrimidine-2,4(1H,3H)-dione], in that order: 0.93 nM, 9.38 nM, 4.71 nM and 2.04 nM.
For `N#Cc1cccc([C@H]2C[C@@H]2c2cc(-c3c[nH]c(=O)[nH]c3=O)nn3ccnc23)c1` [Example 50, 3-((1S,2S)-2-(6-(2,4-dioxo-1,2,3,4-tetrahydropyrimidin-5-yl)imidazo[1,2-b]pyridazin-8-yl)cyclopropyl)benzonitrile], in that order: 1.37 nM, 10.7 nM, 5.84 nM and 2.45 nM.
Compound `COC(=O)c1ccccc1[C@H]1C[C@@H]1c1cc(-c2c[nH]c(=O)[nH]c2=O)nn2ccnc12` [Example 113, methyl 2-((1S,2S)-2-(6-(2,4-dioxo-1,2,3,4-tetrahydropyrimidin-5-yl)imidazo[1,2-b]pyridazin-8-yl)cyclopropyl)benzoate] yielded an IC50 against CD73 [3] of 147 nM. The same compound had an EC50 in assay [4] of 210 nM.
The corresponding values for `COc1cccc([C@H]2C[C@@H]2c2cc(-c3c[nH]c(=O)[nH]c3=O)nn3ccnc23)c1` [Example 114, 5-(8-((1S,2S)-2-(3-methoxyphenyl)cyclopropyl)imidazo[1,2-b]pyridazin-6-yl)pyrimidine-2,4(1H,3H)-dione] are 31.1 nM and 5.38 nM.
The corresponding values for `O=c1[nH]cc(-c2cc(N3CCC[C@H]3c3ccc(F)cc3)c3nccn3n2)c(=O)[nH]1` [Example 116, (S)-5-(8-(2-(4-fluorophenyl)pyrrolidin-1-yl)imidazo[1,2-b]pyridazin-6-yl)pyrimidine-2,4(1H,3H)-dione] are > 2500 nM and 718 nM.

A word on the IC50: it is the concentration needed to halve the response being measured. In general, EC50 refers to the concentration needed to bring the measured effect to its halfway point. A higher EC50 goes with weaker potency.
